Assay results as given in patent publication US10660910B2, “Use of sedoheptulose for prevention or treatment of inflammation” (C7 SUGAR GMBH, priority 2013, dated 2020).

Key:
primary human adipocytes = assay: Human adipocyte culture in GF or GFS media, gene expression by RT-PCR; assay type: cell-based
Procedure: Stromal vascular fraction cells (SVFs) from subcutaneous white adipose tissue of a patient undergoing abdominal surgery were isolated as described before (Lindroos et al, Cell Metab. (2013), July 2; 18(1):62-74.). Briefly, adipose tissue was digested with Collagenase II (Worthington) and filtered. SVFs were separated from mature adipocytes by centrifugation, followed by the lysis of erythrocytes in the SVF-fraction (Buffer EL, Qiagen). The purified SVFs were cultured in DMEM/F12, 10% FBS (Gibco, Life Technologies). As soon as the cells reached confluence, they were washed with DMEM/F12 w/o glucose (Biowest) and the medium was replaced by DMEM/F12 with a total carbohydrate load of 3 g/L, containing 1.5 g/L glucose and fructose or 1 g/L each of glucose, fructose, and sedoheptulose, respectively. Two days after confluence (day 0), differentiation was induced by adding 1 μM dexamethasone, 1.74 μM insulin, 5 μM troglitazone, […], 17 μM pantothenic acid and 33 μM biotin. After two days, IBMX and dexamethasone were omitted, while insulin and troglitazone were removed on day 4. 50% of the medium was replaced on day 6. Two days later, the cells were harvested for RNA isolation (RNeasy mini kit, Qiagen).
Briefly, total RNA was extracted and reverse-transcribed using commercial kits (QIAGEN, Applied Biosystems). Quantitative real-time PCRs were performed on an AbiPRISM 7900HT real-time cycler using iTaq SYBR Green Supermix with ROX (BioRad) to measure CARKL, adiponectin, UCP-1, TNFa, IL-6, MCP-1, and beta-actin expression as previously described (Haschemi et al., Cell Metab. 15 (2012), 813-826). Expression of target gene was normalized to beta-actin expression. Relative expression of target gene was calculated by the delta-delta CT method.

[1] = system: LPS-induced activated primary macrophages; assay: LPS-induced cytokine secretion by bone marrow derived macrophages (ELISA); assay type: cell-based, mouse; conditions: LPS 100 ng/ml, GFS vs GF media
Procedure: FIG. 3: (A-E) Primary human adipocytes were obtained by differentiation of the stromal vascular cell fraction in the presence of glucose and fructose (GF, 1.5 g/L of each sugar; total carbohydrates 3 g/L) or sedoheptulose supplemented media, which was termed GFS (1 g/L of each sugar; total carbohydrates 3 g/L), for eight days. Subsequently mRNA levels of (A) CARKL, (B) adiponectin and (C) uncoupling protein 1 (UCP-1) was assessed by RT-PCR and compared between the groups. (D) Cellular oxygen consumption rates (OCR) and (E) extracellular acidification rates (ECAR) of adipocytes were recorded in the presence of indicated carbohydrate-mix (mean+/−S.D., n=9-11). […] Secretion of (K) TNFa and (L) IL-6 cytokines over the period of two days was measured by ELISA in the supernatant of bone marrow derived macrophages. LPS-induced (100 ng/ml) secretion of (M) TNFa 2 hrs after activation and (N) IL-6 6 hrs after activation in the respective media by macrophages was also measured by ELISA. […]

[2] = system: Glucose-6-phosphate dehydrogenase (G6PD) in hepatocytes; assay: Glucose-6-phosphate dehydrogenase activity assay (enzyme histochemistry) in hepatocytes; assay type: cell-based, mouse; conditions: WT cells incubated in cell culture media with sedoheptulose; compared with phenotype of CARKL overexpressing cells; data not shown
Procedure: Hepatocytes were isolated from male wild-type and CARKL overexpressing mice after the mice were sacrificed by hepatic in situ collagenase perfusion. After perfusion, the liver was quickly removed, minced, and filtered through a cell strainer (Fisher Scientific, Inc) into a 50 ml sterile tube. Hepatocytes in the resulting filtrate were purified from the nonparenchymal cells by centrifugation steps. The isolated hepatocytes were seeded into plates at a concentration of 0.25×10^6/ml in respective DMEM-media containing 10% FBS and indicated carbohydrate mixes at 3 g/L (glucose and fructose (GF), or glucose, fructose and sedoheptulose (GFS)) at least two days before experiments were performed. Cells were grown on polystyrene vessel tissue culture treated glass slides, snap frozen in liquid nitrogen and kept at −80° C. The enzyme histochemical procedure was based on the tetrazolium salt method as described by Van Noorden and Frederiks. […] The medium was freshly prepared immediately before incubation. Control reactions additionally contained 40 mM glucosamine-6-phosphate. Cells were incubated at room temperature for 15 minutes under continuous mixing by orbital shaker. After incubation, cells were washed 3×5 minutes in […] phosphate buffered saline, dried, and mounted in glycerol gelatin, and photographed within one day at ×10 magnification.

osteoclasts = assay: In vitro bone resorption assay; assay type: cell-based, mouse
Procedure: Mouse bones were isolated from male wild-type and CARKL overexpressing mice and bone marrow wash flushed, washed and cleared from redblood cells by lysis, and subsequently differentiated in DMEM containing 25 mM glucose and 20 ng/ml M-CSF. After 4 days, cells for osteoclast differentiation were harvested and seeded in corning osteo assay plates with differentiation media (see below), and for primary bone marrow derived macrophages (BMDM) the medium was renewed and further supplemented with M-SCF for two days. Differentiated BMDM were then seeded in respective DMEM-media containing 10% FBS and indicated carbohydrate mixes at 3 g/L (glucose and fructose (GF), or glucose, fructose and sedoheptulose (GFS)) at least two days before experiments were performed. Osteoclast precursor cells (bone marrow cells treated with 20 ng/ml M-CSF for 4 days) were plated in 24-well Corning Osteo Assay plate in the presence of 10 ng/ml M-CSF and 100 ng/ml RANKL in alpha-MEM medium containing 10% FBS and 3 g/L either glucose and fructose (GF), or glucose, fructose, and sedoheptulose (GFS). The Medium was renewed every third day. […] Each well was entirely photographed by TissueFax with an ×20 objective and all visible resorption pits were counted and analysed blinded.

sedoheptulose kinase CARKL mRNA expression (primary human adipocytes; GFS media (1 g/L each glucose, fructose, sedoheptulose) vs GF (1.5 g/L each), eight days differentiation, FIG. 3A): increase
Structure (SMILES): O=C(CO)[C@@H](O)[C@H](O)[C@H](O)[C@H](O)CO [sedoheptulose, Sedoheptulose]
adiponectin expression (primary human adipocytes; GFS vs GF treated cells, eight days, FIG. 3B): increase | UCP-1 expression (primary human adipocytes; GFS vs GF treated cells, eight days, FIG. 3C): increase | reduction of LPS-induced TNFa secretion ([1]; 2 hrs after activation, FIG. 3M): approximately 40% | LPS-induced IL-6 secretion ([1]; 6 hrs after activation, FIG. 3N): comparable levels as GF treated macrophages | G6PD activity distribution (re-localization of G6PD, reduced activity in the inner space of the cells) [2]: same phenotype | pit formation by osteoclasts (osteoclasts; 7 days in Corning Osteo Assay plates, GFS vs GF media, FIG. 5C): reduced | larger resorption-pits (osteoclasts; WT osteoclasts in GF or GFS media, FIG. 5D): found only in the absence of sedoheptulose
